{"source": "patent US12181409B2", "about": "“Cell imaging composition and cellular material imaging method using same” (EWHA UNIVERSITY-INDUSTRY COLLABORATION FOUNDATION, priority 2019, dated 2024)", "key": {"[1]": {"system": "mitochondria in HeLa cells", "test": "Colocalization of Compound 1 with MitoTracker Deep Red, confocal microscopy", "format": "cell-based", "settings": "10 μM Compound 1 and 50 nM MitoTracker Deep Red, 30 minutes", "protocol": "FIGS. 10A to 10C show fluorescence images of mitochondria in a cell by Compound 1 (excitation at 405 nm/emission at 490 nm to 590 nm) (FIG. 10A), Mitotracker Deep Red (excitation at 635 nm/emission at 655 nm to 755 nm) (FIG. 10B), and Compound 1 and Mitotracker Deep Red merged (FIG. 10C), respectively, acquired by confocal microscopy after HeLa cells were incubated with 10 μM Compound 1 and 50 nM Mitotracker Deep Red for 30 min, according to an example of the present disclosure.\nReferring to FIGS. 10A to 10E, HeLa cells were incubated with 10 μM Compound 1 and 50 nM MitoTracker Deep Red for 30 minutes and a fluorescent image of the mitochondria in the cells was obtained by confocal microscopy."}, "[2]": {"system": "HeLa cells", "test": "Colocalization of Compound 1 with ER-Tracker Red, confocal microscopy", "format": "cell-based", "settings": "10 μM Compound 1 and 1 μM ER-Tracker Red, 30 minutes", "protocol": "FIGS. 11A to 11C show fluorescence images of mitochondria in a cell by Compound 1 (excitation at 405 nm/emission at 490 nm to 590 nm) (FIG. 11A), ER(endoplasmic reticulum)-tracker Red (excitation at 559 nm/emission at 576 nm to 675 nm) (FIG. 11B), and Compound 1 and ER-tracker Red merged (FIG. 11C), respectively, acquired by confocal microscopy after HeLa cells were incubated with 10 μM Compound 1 and 1 μM ER-tracker Red for 30 min, according to an example of the present disclosure.\nReferring to FIGS. 11A to 11C, HeLa cells were incubated with 10 μM Compound 1 and 1 μM ER-Tracker Red for 30 minutes and a fluorescent image of the mitochondria in the cells was obtained by confocal microscopy."}, "[3]": {"system": "HeLa cells", "test": "Cytotoxicity test (MTT)", "format": "cell-based", "settings": "30 μM Compound 1, 24 hours, MTT 4 hours, untreated sample = 100%", "protocol": "Referring to FIG. 13, HeLa cells were treated with various concentrations of Compound 1 for 24 hours, cultured in a medium containing MTT for 4 hours, and then the viability of the cells depending on the concentration of Compound 1 was checked. When the absorbance of a sample not treated with Compound 1 was set to 100%, it was confirmed that the cells treated with 30 μM Compound 1 survived about 80%."}, "[4]": {"molecular_target": "T1, HSA (Homo sapiens, UniProt P02768)", "T1 sequence (P02768 25-609)": "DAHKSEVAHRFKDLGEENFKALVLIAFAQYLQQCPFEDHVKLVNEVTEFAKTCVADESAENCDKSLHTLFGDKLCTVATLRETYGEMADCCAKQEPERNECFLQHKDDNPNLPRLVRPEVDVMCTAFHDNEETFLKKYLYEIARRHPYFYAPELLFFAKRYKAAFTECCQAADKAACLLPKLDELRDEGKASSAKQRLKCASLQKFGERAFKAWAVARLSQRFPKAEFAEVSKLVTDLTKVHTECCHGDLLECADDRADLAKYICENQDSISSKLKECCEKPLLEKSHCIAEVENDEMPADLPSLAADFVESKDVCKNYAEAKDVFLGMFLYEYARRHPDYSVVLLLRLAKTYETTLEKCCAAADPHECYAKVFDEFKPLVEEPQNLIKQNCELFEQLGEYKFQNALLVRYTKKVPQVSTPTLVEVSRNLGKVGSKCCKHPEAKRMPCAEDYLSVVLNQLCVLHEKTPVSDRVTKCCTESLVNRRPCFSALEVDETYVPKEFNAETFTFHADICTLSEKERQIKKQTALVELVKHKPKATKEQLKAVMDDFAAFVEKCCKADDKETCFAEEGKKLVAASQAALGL", "test": "Fluorescent imaging of various proteins", "format": "biochemical", "settings": "3 μM Compound 1, various proteins in DMSO, 0.5 hours and 1.5 hours", "protocol": "FIGS. 14D(i) to 14D(vi) show fluorescence imaging of proteins measured after incubating 3 μM Compound 1 with various proteins in DMSO for 0.5 hours and 1.5 hours, respectively (λex=410 nm), according to an example of the present disclosure.\nAfter 3 μM Compound 1 and various types of proteins in DMSO were incubated for 0.5 hours and 1.5 hours, fluorescence intensity profiles and fluorescent images depending on the types of proteins were compared."}, "[5]": {"molecular_target": "T1, HSA", "test": "Fluorescent imaging of HSA protein at various pH values", "format": "biochemical", "settings": "buffer solutions at pH 7.4, pH 7.5 and pH 8.5", "protocol": "After Compound 1 and HSA protein were incubated in buffer solutions at various pH values, fluorescence intensity profiles and fluorescent images depending on pH were compared."}}, "data": [{"smiles": "O=C(c1ccccc1)c1ccccc1NCc1ccccc1B(O)O", "note": "[Compound 1]", "values": [{"measurement": "Pearson correlation coefficient", "setting": "[1]", "result": "0.81±0.02"}, {"measurement": "degree of agreement of fluorescent image", "setting": "[1]", "result": "about 81%"}, {"measurement": "Pearson correlation coefficient", "setting": "[2]", "result": "0.85±0.01"}, {"measurement": "degree of agreement of fluorescent image", "setting": "[2]", "result": "about 85%"}, {"measurement": "cell viability (survival)", "setting": "[3]", "result": "about 80%"}, {"measurement": "fluorescent imaging performance and selectivity among proteins", "setting": "[4]", "result": "fluorescent imaging performance and selectivity specific to HSA"}, {"measurement": "fluorescent imaging performance for HSA depending on pH", "setting": "[5]", "result": "fluorescent imaging performance specific to HSA protein"}]}]}
